From patent publication US7572606B1 (Nereus Pharmaceuticals, Inc., priority 2005, dated 2009) come the findings set out here.

As a reminder, the EC50 is the midpoint of the concentration-response curve.

Data set [1] has as its system NF-κB/Luc 293 cells. Kind of data set: Viability of reporter cells, resazurin, 24 hr. Conditions: at the EC50 concentration of the luciferase assay. It counts as cell-based, human. A general note: Alamar Blue is a resazurin reagent that responds to reducing activity.
Data set [2] is described as follows: Maximum Tolerated Dose (MTD) determination. The data set is classed as in vivo, female BALB/c mice. The text has this: In vivo studies were designed to determine the MTD of Salinosporamide A when administered intravenously to female BALB/c mice.
Animals were observed daily for clinical signs and were weighed individually twice weekly until the end of the experiment (maximum of 14 days after the last day of dosing).

The test system of data set [3] is PARP in Jurkat cells. Kind of data set: PARP cleavage, western blot. The data set is classed as cell-based, human. Conditions: 100 nM Salinosporamide A 2-24 hrs; […] nM Staurosporine 4 hrs. (In western blotting, separated proteins are transferred to a membrane and probed.)
The subject of data set [4] is VEGF-induced migration of multiple myeloma cells. In words: Transwell migration assay. The data set is classed as cell-based. On the procedure: The compounds disclosed herein inhibit angiogenesis. […] The other compounds disclosed herein are tested in a transwell migration assay and inhibit migration.
The subject of data set [5] is p21 and p27 in HEK293 cells and HEK293 NF-κB/Luciferase reporter clone. In words: Western blot of cell cycle regulatory proteins. The data set is classed as cell-based, human. Conditions: various concentrations, preliminary results. The text has this:
The ubiquitin-proteasome pathway is an essential proteolytic system involved in cell cycle control by regulating the degradation of cyclins and cyclin-dependent kinase (Cdk) inhibitors such as p21 and p27. Pagano, et al., Science 269:682 (1995), Kisselev, et al., Chem Biol 8:739 (2001), King, et al., Science 274:1652 (1996). Furthermore, p21 and p27 protein levels are increased in the presence of proteasome inhibitors. Fukuchi, et al., Biochim Biophys Acta 1451:206 (1999), Takeuchi, et al., Jpn J Cancer Res 93:774 (2002).
The Western blots presented in FIG. 33 were reprobed using antibodies against p21 and p27 to determine the endogenous level of each protein and anti-Tubulin antibody was used to confirm equal loading of protein.

In data set [6] the test system is DU 145. In words: Cell growth inhibition, resazurin, 48 h. It counts as cell-based, human.
The test system of data set [7] is PARP and Pro-Caspase 3 in PC-3 cells. Kind of data set: PARP and Pro-Caspase 3 cleavage, western blot. The data set is classed as cell-based, human. Conditions: 100 nM for 0, 8 or 24 hours. As for the experimental part:
Total protein lysates were made and 20 μg of the lysates were then resolved under reducing/denaturing conditions and blotted onto nitrocellulose. The blots were then probed with anti-PARP or anti-caspase 3 antibodies followed by stripping and reprobing with an anti-actin antibody.

In data set [8] the test system is MIA PaCa-2. In words: Cell growth inhibition, resazurin, 48 h. The data set is classed as cell-based. Conditions: Homo sapiens; MIA PaCa-2, 48 h drug exposure.
Data set [9] relates to LPS-induced plasma TNF. Kind of data set: Inhibition of in vivo LPS-induced TNF. More on the design: species or system male Swiss Webster mice. Conditions: 0.125 or […] i.v., 30 minutes post-LPS (2 mg/kg i.p.). On the procedure:
The following methods outline the protocol design for these studies.
Male Swiss Webster mice (12/group weighing 20-25 g) were injected with LPS (2 mg/kg) by the i.p. route. […] Ninety minutes after LPS injection, the mice were anesthetized with Isoflurane and bled by cardiac puncture to obtain plasma. Remaining blood pellet was then resuspended in 500 μL of PBS to wash away residual serum proteins and centrifuged again. Supernatant was removed and blood pellet frozen for analysis of proteasome inhibition in packed whole blood lysate.
Animals were dosed i.v. with 4 ml/kg. A vehicle control solution was also prepared by making the same 1:160 dilution with 100% DMSO into 10% solutol solution giving a final concentration of 9.375% solutol in water and 0.625% DMSO. Measurements of plasma TNF were performed using the Biosource mTNF Cytoset kit (Biosource Intl., Camarillo, Calif.; catalog # CMC3014) according to manufacturer's instructions. Samples were diluted 1:60 for the assay.

For data set [10], the system named is IκBα in HEK293 cells and NF-κB/Luc 293 reporter clone. Kind of data set: Western blot of phosphorylated and total IκBα. It counts as cell-based, human. Conditions: 50 and 500 nM, 1 hour pretreatment, TNF-α 30 minutes. On the procedure: Endogenous protein levels were assessed in both HEK293 cells and the NF-κB/Luc 293 reporter clone.
Antibodies against total and phosphorylated forms of IκBα were used to determine the endogenous level of each protein and anti-Tubulin antibody was used to confirm equal loading of protein.

Data set [11] has as its system LeTx-induced cytotoxicity of RAW264.7 cells. In words: cells. It counts as cell-based, murine.
Data set [12] deals with HL-60(TB). Conditions: Leukemia.
Data set [13] deals with T1, chymotrypsin-like activity of rabbit muscle 20S proteasome (Oryctolagus cuniculus, UniProt G1T4Q9).
T1 sequence (G1T4Q9 1-263): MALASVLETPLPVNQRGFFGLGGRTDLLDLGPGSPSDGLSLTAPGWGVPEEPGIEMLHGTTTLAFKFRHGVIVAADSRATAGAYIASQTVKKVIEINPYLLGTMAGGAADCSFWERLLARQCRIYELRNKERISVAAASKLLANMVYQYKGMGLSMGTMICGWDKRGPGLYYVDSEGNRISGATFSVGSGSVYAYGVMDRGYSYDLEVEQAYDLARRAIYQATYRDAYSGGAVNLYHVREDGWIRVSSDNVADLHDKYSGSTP
In words: In vitro inhibition of 20S proteasome, suc-LLVY-AMC.

Read-outs that look alike come from different tables or passages of the source.

Consider `C[C@@]12OC(=O)[C@]1([C@@H](O)[C@@H]1C=CCCC1)NC(=O)[C@@H]2CCCl` [Formula II-16, Salinosporamide A], for which, in data set [1], the cell viability entry is given as “did not affect cell viability”. In data set [2] (i.v. daily for five consecutive days), the well tolerated dose result was “up to 0.1 mg/kg”. Also, in data set [2] (single intravenous dose), the tolerated dose result is reported as “up to 0.25 mg/kg”. For the same molecule, in [3], the PARP cleavage entry was “cleavage of PARP within the Jurkat cells in a time-dependent fashion”. The “VEGF-induced migration of multiple myeloma cells” value in data set [4] was “blocked vascular endothelial growth-factor (VEGF)-induced migration of multiple myeloma cells”. Further, the “p21 and p27 protein levels” value in data set [5] is “p21 and p27 protein levels were elevated”. Moreover, the “% cytotoxicity” value in data set [6] (DU 145) stood at 75 ± 4%. Moreover, the response in data set [6] (Homo sapiens, DU 145, 48 h drug exposure) was half-maximal at 37 ± 10 nM (EC50). Also, in data set [7], the “cleavage of PARP and Pro-Caspase 3” value is listed as “cleavage of PARP is noticeable at 24 hours”. Besides, the EC50 in [8] amounted to 46 nM. In addition, the “reduction of LPS-induced plasma TNF levels” value in [9] is “approximately 65%”. Also, the “total IκBα and phospho-IκBα level” value in [10] is recorded as “reduced the degradation of total IκBα but also retained the phospho-IκBα level”. In data set [11], the EC50 was determined as 3.6 nM, the cell-viability worked out at 82% and the “increase in the viability of LeTx-treated cells compared to LeTx treatment alone” value is 10 fold. In [11] (Mus musculus, RAW264.7), the EC50 is < 4 nM. In data set [12], the “Log10 G150” value is reported as <-8.00 Molar and the “Log10 TGI” value was -4.32 Molar.

As to `C[C@H]1C(=O)N[C@@]2([C@@H](O)[C@@H]3C=CCCC3)C(=O)O[C@@]12C` [Formula II-20], the EC50 is 2 to 11 nM in data set [13] and 7.7 ± 3 nM in [13] (read-out: EC50 Chymotrypsin-like, purified rabbit 20S proteasome, suc-LLVY-AMC).
